The subject of series [1] is sEH. As to conditions: non-selective pan-esterase inhibitor used at 100 μM; ref [18]; cited from earlier work.
In series [2] the target is T1, Dog sEH (Canis lupus familiaris, UniProt A0A8I3NJL8).
T1 sequence (A0A8I3NJL8 1-556): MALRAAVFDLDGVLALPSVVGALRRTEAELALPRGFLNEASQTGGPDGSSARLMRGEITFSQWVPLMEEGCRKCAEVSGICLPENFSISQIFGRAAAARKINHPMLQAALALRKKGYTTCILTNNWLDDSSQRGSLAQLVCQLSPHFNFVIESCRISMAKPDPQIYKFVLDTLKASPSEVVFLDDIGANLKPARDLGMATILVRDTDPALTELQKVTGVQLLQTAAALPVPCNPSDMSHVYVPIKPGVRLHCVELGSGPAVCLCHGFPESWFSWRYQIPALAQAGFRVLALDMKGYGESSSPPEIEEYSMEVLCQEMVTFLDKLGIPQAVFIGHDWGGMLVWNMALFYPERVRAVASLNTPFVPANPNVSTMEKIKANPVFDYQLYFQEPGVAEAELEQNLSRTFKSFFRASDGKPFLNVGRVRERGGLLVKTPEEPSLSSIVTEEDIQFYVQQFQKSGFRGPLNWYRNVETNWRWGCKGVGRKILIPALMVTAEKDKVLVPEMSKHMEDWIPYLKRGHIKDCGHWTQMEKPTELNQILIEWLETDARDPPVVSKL
Description: Primary screen (end point) of the sEH inhibitor library, PHOME substrate. Type of series: biochemical. The conditions noted are these: [I] = 100 nM, primary end-point screening. As for the experimental part: (§1) Primary screening of the library was performed with an inhibitor concentration of 100 nM using PHOME as substrate ([22]). […] The plates were then mixed and incubated at 30°C for 5 min. Across each plate, 30 μL of the working substrate solution (270 μL of 5 mM PHOME solution in DMSO diluted with 3,680 μL of buffer) were added quickly to yield [S]final: 50 μM. Each plate was further incubated at room temperature (horse sEH: 60 min; cat sEH: 45 min; dog sEH: 30 min).

Series [3] deals with T2, Horse sEH (Equus caballus, UniProt F7C407). Described as above. The conditions noted are these: [I] = 100 nM, primary end-point screening. The class given is biochemical. As to the method: as §1
The target in series [4] is T2, Horse sEH. Description: Secondary screen (kinetic mode), PHOME substrate. The class given is biochemical. The conditions noted are these: [I] = 100 nM, secondary kinetic mode screening.
The target in series [5] is T1, Dog sEH. Description: Secondary screen (kinetic mode), PHOME substrate. The class given is biochemical. The conditions noted are these: [I] = 100 nM, secondary kinetic mode screening.
Series [6] has as its target sEH activity from liver cytosol of Cow (Bos taurus, UniProt Q17QK4). Nature of the series: sEH inhibition potency (IC50), radioactive assay with [3H]t-DPPO, liver cytosol. Type of series: biochemical. The conditions noted are these: [3H]t-DPPO ([S]final = 5 μM) as substrate. The text has this:
(§2) Fresh liver tissues samples (5–30 g) were collected promptly after death from healthy adult cat, dog and horse euthanized for reasons unrelated to this study, and whose bodies were given to science by the owners in line with federal regulations and protocol approved by the Institutional Animal Care and Use Committee at University of California Davis. Similarly, tissues from the other animals tested herein were collected from healthy animals immediately after being slaughter at the university abattoir. Because no animals were directly used or killed for this study, sample collections were exempted from approval by the Institutional Animal Care and Use Committee of the University of California Davis and Michigan State University. […] The tissues were flash-frozen in liquid nitrogen following removal, and then kept at −80°C until used. After thawing on ice, the samples were homogenized in chilled sodium phosphate buffer (20 mM pH 7.4) containing 5 mM EDTA, 1 mM DTT and 1 mM PMSF (tissue weight:buffer volume ratio 1:4). These homogenates were centrifuged at 100,000 g for 60 min at 4°C. The supernatant (the cytosolic fraction) was separated from the pellet, aliquoted and flash frozen in liquid nitrogen, then kept frozen at −80°C until usage.
(§3) The IC50 values reported herein were determined using either a fluorescent based assay (CMNPC as substrate) for purified enzyme preparations or a radioactive based assay ([^3H]t-DPPO as substrate) for crude enzyme preparations ([20]). The fluorescent assay was used with the purified proteins. […] The substrate (CMNPC) was then added ([S]final = 5 μM). […] The radioactive […] assay was used with the liver crude extracts. Extracts were incubated with inhibitors ([I]final = 1–1,000 nM) at 30° C for 5 min in sodium phosphate buffer (pH 7.4) containing 0.1 mg/mL of BSA and 1% of DMSO, prior to substrate introduction ([^3H]t-DPPO [S]final: 50 μM; ~12,000 dpm/assay). The enzymes were incubated at 30°C for 10 min, and the reaction was quenched by the addition of 60 μL methanol and 200 μL isooctane, which extracts the remaining epoxide from the aqueous phase. […] Assays were performed in triplicate.

Series [7] deals with T3, sEH activity from liver cytosol of Hamster (Mesocricetus auratus, UniProt A0A1U7QV09).
T3 sequence (A0A1U7QV09 1-554): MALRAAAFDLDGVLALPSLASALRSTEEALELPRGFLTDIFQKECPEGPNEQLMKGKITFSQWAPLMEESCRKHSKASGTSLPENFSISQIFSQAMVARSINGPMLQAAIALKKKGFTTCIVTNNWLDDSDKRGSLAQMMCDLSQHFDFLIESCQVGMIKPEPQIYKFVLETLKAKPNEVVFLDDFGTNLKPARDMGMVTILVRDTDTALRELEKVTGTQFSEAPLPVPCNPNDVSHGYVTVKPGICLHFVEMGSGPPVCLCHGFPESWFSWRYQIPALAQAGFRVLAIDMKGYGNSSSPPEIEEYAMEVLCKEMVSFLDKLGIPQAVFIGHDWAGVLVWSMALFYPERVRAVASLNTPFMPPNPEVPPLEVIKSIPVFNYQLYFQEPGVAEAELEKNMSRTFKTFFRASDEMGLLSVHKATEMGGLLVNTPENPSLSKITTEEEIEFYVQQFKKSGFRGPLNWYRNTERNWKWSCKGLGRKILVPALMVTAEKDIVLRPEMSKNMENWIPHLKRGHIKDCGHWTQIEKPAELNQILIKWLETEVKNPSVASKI
The description is as above. The class given is biochemical. The conditions noted are these: [3H]t-DPPO ([S]final = 5 μM) as substrate.
Source text: as §2, §3

Series [8] in a line: Microsomal stability. The conditions noted are these: 1 μM inhibitor, microsomes 1 mg/mL, 37°C, 30 min, compound remaining, average ± SD (n = 3). The class given is in vitro ADME, horse. As to the method:
(§4) The stability of the sEH inhibitors was determined using liver microsomes as described ([24]). […] After 30 min at 37°C, the reaction was stopped by the addition of one volume of methanol containing CUDA (200 nM) as surrogate. The amount of remaining inhibitor was determined by LC/MS/MS. The stability is reported as a percentage of compound remaining after 30 min in these conditions.
(§5) Mass spectrometry analyses were performed using a Waters Quattro Premier triple quadrupole tandem mass spectrometer (Micromass, Manchester, UK) interfaced to an electrospray ionization (ESI) source. The MS was coupled with a Waters Acquity UPLC (Waters, Milford, MA, USA). A Varian Pursuit5 C18 RP HPLC column (150 mm × 2.1 mm, particle size 5 μm) was used to separate the analytes. […] The source and the desolvation temperatures were set at 120 and 300°C, respectively. […] Dwell time was set to 0.1 s.

A short description of series [9]: Microsomal stability. Type of series: in vitro ADME, cat. As for the experimental part:
as §4, §5

Series [10] can be described thus: Microsomal stability. The class given is in vitro ADME, dog. As to conditions: 1 μM inhibitor, microsomes 1 mg/mL, 37°C, 30 min, compound remaining, average ± SD (n = 3). As to the method: as §4, §5
Series [11] deals with T4, Cat sEH (Felis catus, UniProt A0ABI7ZL20). Nature of the series: Primary screen (end point) of the sEH inhibitor library, PHOME substrate. Type of series: biochemical. As to conditions: read-out: Cat sEH Inhibition (%) P. As to the method:
as §1

The target in series [12] is T4, Cat sEH. Nature of the series: Secondary screen (kinetic mode), PHOME substrate. Type of series: biochemical. As to conditions: read-out: Cat sEH Inhibition (%) S.

The structures appear in SMILES notation. Where only a bound is given, the exact number is not on record here.

T2 sequence (F7C407 entry or part of it): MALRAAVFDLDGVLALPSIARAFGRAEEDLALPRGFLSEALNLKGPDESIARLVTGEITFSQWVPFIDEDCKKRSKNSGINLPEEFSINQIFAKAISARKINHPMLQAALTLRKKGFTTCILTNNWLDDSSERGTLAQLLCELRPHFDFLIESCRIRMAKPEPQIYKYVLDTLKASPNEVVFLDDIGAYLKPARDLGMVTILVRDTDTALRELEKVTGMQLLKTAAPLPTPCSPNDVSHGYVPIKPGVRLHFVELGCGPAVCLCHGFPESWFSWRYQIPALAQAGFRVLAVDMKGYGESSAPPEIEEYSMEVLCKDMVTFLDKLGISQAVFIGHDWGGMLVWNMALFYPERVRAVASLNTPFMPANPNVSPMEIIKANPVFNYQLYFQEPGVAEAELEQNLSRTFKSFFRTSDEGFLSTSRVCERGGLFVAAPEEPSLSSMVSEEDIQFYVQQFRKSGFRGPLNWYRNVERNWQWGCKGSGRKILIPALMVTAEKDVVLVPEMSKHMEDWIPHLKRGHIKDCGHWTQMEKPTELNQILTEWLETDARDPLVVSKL
T4 sequence (A0ABI7ZL20 entry or part of it): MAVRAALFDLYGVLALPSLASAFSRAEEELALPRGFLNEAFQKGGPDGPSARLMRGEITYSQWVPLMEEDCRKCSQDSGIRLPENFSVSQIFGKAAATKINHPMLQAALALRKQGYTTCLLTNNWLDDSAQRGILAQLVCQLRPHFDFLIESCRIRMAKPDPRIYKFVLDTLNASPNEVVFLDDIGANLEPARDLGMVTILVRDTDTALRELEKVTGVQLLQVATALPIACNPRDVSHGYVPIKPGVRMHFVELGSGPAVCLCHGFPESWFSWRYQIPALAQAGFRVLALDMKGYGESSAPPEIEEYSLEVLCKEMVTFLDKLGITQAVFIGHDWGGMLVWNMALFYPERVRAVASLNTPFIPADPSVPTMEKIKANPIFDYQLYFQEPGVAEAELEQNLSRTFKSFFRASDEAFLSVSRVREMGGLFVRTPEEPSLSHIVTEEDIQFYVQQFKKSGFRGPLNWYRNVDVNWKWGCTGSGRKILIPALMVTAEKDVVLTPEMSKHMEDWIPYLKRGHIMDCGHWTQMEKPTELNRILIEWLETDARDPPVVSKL
Chain of sEH activity from liver cytosol of Cow (Q17QK4 entry or part of it): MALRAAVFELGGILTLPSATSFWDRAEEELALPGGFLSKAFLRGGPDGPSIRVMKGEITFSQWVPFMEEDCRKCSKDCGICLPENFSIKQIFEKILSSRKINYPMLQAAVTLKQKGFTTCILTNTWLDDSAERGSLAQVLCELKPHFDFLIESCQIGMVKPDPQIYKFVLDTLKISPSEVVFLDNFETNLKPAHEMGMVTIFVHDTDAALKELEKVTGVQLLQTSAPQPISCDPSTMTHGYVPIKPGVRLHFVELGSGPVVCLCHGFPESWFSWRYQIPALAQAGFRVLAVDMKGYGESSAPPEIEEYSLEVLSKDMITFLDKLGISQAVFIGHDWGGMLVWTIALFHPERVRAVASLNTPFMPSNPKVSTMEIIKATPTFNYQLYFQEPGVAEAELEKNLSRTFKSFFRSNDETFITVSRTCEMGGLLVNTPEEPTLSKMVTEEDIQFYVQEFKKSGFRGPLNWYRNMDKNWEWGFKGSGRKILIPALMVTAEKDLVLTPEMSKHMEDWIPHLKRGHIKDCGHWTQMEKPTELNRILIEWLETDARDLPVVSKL

On to `CCOP(=O)(OCC)Oc1ccc([N+](=O)[O-])cc1` [Paraoxon], for which the “inhibition of sEH” value in series [1] is “does not inhibit sEH”.
Regarding `O=C(O)CCCCCCCCCCCNC(=O)NC12CC3CC(CC(C3)C1)C2` [compound 700], the inhibition (as a rule, the percentage by which the read-out fell short of the control) at 0.1 µM in [2] (read-out: Dog sEH Inhibition (%) P.) was 92%; in [3] (read-out: Horse sEH Inhibition (%) P.), 94%; in [4] (read-out: Horse sEH Inhibition (%) S.) it was 85%; in series [5] (read-out: Dog sEH Inhibition (%) S.) it was 80%. Further, the IC50 (commonly the concentration that gives 50% inhibition) came to 6 nM in series [6] and 5 nM in [7]. Besides, in series [8] (with NADPH), the “Stability (% without microsomes) Horse liver microsomes NADPH +” value was determined as 96 ± 9%. Further, the “Stability (% without microsomes) Horse liver microsomes NADPH –” value in [8] (without NADPH) came to 114 ± 15%. For the same compound, the “Stability (% without microsomes) Cat liver microsomes NADPH +” value in series [9] (1 μM inhibitor, microsomes 1 mg/mL, with NADPH, 37°C, 30 min, compound remaining, average ± SD (n = 3)) was found to be 28 ± 3%. In addition, the “Stability (% without microsomes) Cat liver microsomes NADPH –” value in series [9] (1 μM inhibitor, microsomes 1 mg/mL, without NADPH, 37°C, 30 min, compound remaining, average ± SD (n = 3)) is listed as 105 ± 11%. The “metabolism in cat liver microsomes (in words)” value in series [9] (in the presence of NADPH) is given as “quickly transformed”. Also, in series [10] (with NADPH), the “Stability (% without microsomes) Dog liver microsomes NADPH +” value is 66 ± 9%. Also, in series [10] (without NADPH), the “Stability (% without microsomes) Dog liver microsomes NADPH –” value is on record as 94 ± 6%.
As for `CC1CCCCC1NC(=O)Nc1ccccc1` (centres unmarked) [Siduron], the results for the inhibition at 0.1 µM in [11] and in series [12] were 93% and 77%, respectively. Moreover, in [2], the “Dog sEH Inhibition (%) P.” value is listed as below 90%. Also, in series [3], the “Horse sEH Inhibition (%) P.” value came to 92%. In addition, the “Horse sEH Inhibition (%) S.” value in [4] is 81%. Also, the “Dog sEH Inhibition (%) S.” value in [5] stood at 43%.

These data come from paper PMC7479175, “Selection of Potent Inhibitors of Soluble Epoxide Hydrolase for Usage in Veterinary Medicine” (Frontiers in Veterinary Science, 2020).
